PubChem BioAssay AID330 (DTP/NCI, 2004)
Several values for one entry are separate records, joined by “and”; a condition that tells them apart may be missing. Identical values can stand only once. Toxic doses and inconclusive results are not listed. Rule for the calls: active = survival T/C of 150% or more; inactive = T/C below 125% in these data. Square brackets hold non-standard residues; d marks the D form. Peptide text beside a SMILES is read from it. Ac5c = NC1(C(=O)O)CCCC1

Test system: P388 leukemia ip, CD2F1 mice, survival T/C
Test: NCI In Vivo Anticancer Drug Screen. Data for tumor model P388 Leukemia (intraperitoneal) in CD2F1 (CDF1) mice
Conditions: endpoint: median survival time, higher = longer survival
Method in brief: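 Mice carrying the transplanted tumor received test compound or vehicle. Survival was recorded in each group, and the value is the treated-group measurement divided by that of the vehicle-treated control group.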

[1] = dose: 12.5 mg/kg/injection, schedule: Q01DX009 (ip), vehicle: saline with Tween-80
[2] = dose: 25.0 mg/kg/injection, schedule: Q01DX009 (ip), vehicle: saline with Tween-80
[3] = dose: 50.0 mg/kg/injection, schedule: Q01DX009 (ip), vehicle: saline with Tween-80
[4] = dose: 60.0 mg/kg/injection, schedule: Q01DX005 (ip), vehicle: Klucel (hydroxypropylcellulose) (HPC)
[5] = dose: 120.0 mg/kg/injection, schedule: Q01DX005 (ip), vehicle: Klucel (hydroxypropylcellulose) (HPC)
[6] = dose: 240.0 mg/kg/injection, schedule: Q01DX005 (ip), vehicle: Klucel (hydroxypropylcellulose) (HPC)
[7] = dose: 12.5 mg/kg/injection, schedule: Q01DX005 (ip), vehicle: saline with Tween-80
[8] = dose: 25.0 mg/kg/injection, schedule: Q01DX005 (ip), vehicle: saline with Tween-80
[9] = dose: 50.0 mg/kg/injection, schedule: Q01DX005 (ip), vehicle: saline with Tween-80
[10] = dose: 100.0 mg/kg/injection, schedule: Q01DX005 (ip), vehicle: saline with Tween-80
[11] = dose: 50.0 mg/kg/injection, schedule: Q01DX005 (ip), vehicle: saline
[12] = dose: 100.0 mg/kg/injection, schedule: Q01DX005 (ip), vehicle: saline
[13] = dose: 50.0 mg/kg/injection, schedule: Q01DX009 (ip), vehicle: saline
[14] = dose: 60.0 mg/kg/injection, schedule: Q01DX005 (ip), vehicle: saline
[15] = dose: 120.0 mg/kg/injection, schedule: Q01DX005 (ip), vehicle: saline
[16] = dose: 240.0 mg/kg/injection, schedule: Q01DX005 (ip), vehicle: saline
[17] = dose: 100.0 mg/kg/injection, schedule: Q01DX009 (ip), vehicle: saline with Tween-80
[18] = dose: 200.0 mg/kg/injection, schedule: Q01DX009 (ip), vehicle: saline with Tween-80
[19] = dose: 100.0 mg/kg/injection, schedule: Q04DX003 (ip), vehicle: Klucel (hydroxypropylcellulose) (HPC)
[20] = dose: 200.0 mg/kg/injection, schedule: Q04DX003 (ip), vehicle: Klucel (hydroxypropylcellulose) (HPC)
[21] = dose: 400.0 mg/kg/injection, schedule: Q04DX003 (ip), vehicle: Klucel (hydroxypropylcellulose) (HPC)

Measured: T/C

COC1CCC(OC2CC(C3(C)CCC4(CC(O)C(C)C(C(C)/C=C(\C)C(=O)C(C)CC(C)C(=O)O)O4)O3)OC3(OC(C4OC(O)(CO)C(C)CC4C)CC3C)C2C)OC1C (stereo not given)
inactive: dose: 12.5 micrograms/kg/injection, schedule: Q01DX009 (ip), vehicle: suspension in saline 106 % of control | dose: 25.0 micrograms/kg/injection, schedule: Q01DX009 (ip), vehicle: suspension in saline 108 % of control | dose: 37.5 micrograms/kg/injection, schedule: Q01DX009 (ip), vehicle: suspension in saline 114 % of control | dose: 50.0 micrograms/kg/injection, schedule: Q01DX009 (ip), vehicle: suspension in saline 108 % of control | dose: 75.0 micrograms/kg/injection, schedule: Q01DX009 (ip), vehicle: suspension in saline 109 % of control | dose: 100.0 micrograms/kg/injection, schedule: Q01DX009 (ip), vehicle: suspension in saline 100 % of control | dose: 150.0 micrograms/kg/injection, schedule: Q01DX009 (ip), vehicle: suspension in saline 100 % of control | dose: 200.0 micrograms/kg/injection, schedule: Q01DX009 (ip), vehicle: suspension in saline 107 % of control | dose: 400.0 micrograms/kg/injection, schedule: Q01DX009 (ip), vehicle: suspension in saline 104 % of control

CCC[CH2][Sn]([CH2]CCC)([CH2]CCC)[C]1(CCCC2CO2)SCCCS1 (stereo not given)
inactive: [1] 86 % of control | [2] 94 % of control | [3] 108 % of control

Nc1nc2c(ncn2[C@@H](CO)OC(CO)CO)c(=O)[nH]1
inactive: dose: 50.0 mg/kg/injection, schedule: Q01DX005 (ip), vehicle: Klucel (hydroxypropylcellulose) (HPC) 99 % of control | dose: 100.0 mg/kg/injection, schedule: Q01DX005 (ip), vehicle: Klucel (hydroxypropylcellulose) (HPC) 98 % of control | dose: 200.0 mg/kg/injection, schedule: Q01DX005 (ip), vehicle: Klucel (hydroxypropylcellulose) (HPC) 98 % of control

COc1ccc(C(=O)N2N=C(C)C(C)(C)C2(C)O)cc1 (stereo not given)
inactive: [4] 104 % of control | [5] 109 % of control | [6] 104 % of control

COc1ccc(C[n+]2ccc3c([N+](=O)[O-])cccc3c2)cc1
inactive: dose: 7.5 mg/kg/injection, schedule: Q01DX005 (ip), vehicle: saline + Tween-80 + alcohol 111 % of control | dose: 15.0 mg/kg/injection, schedule: Q01DX005 (ip), vehicle: saline + Tween-80 + alcohol 116 % of control | dose: 30.0 mg/kg/injection, schedule: Q01DX005 (ip), vehicle: saline + Tween-80 + alcohol 116 % of control

Clc1ccc(-c2cc(-c3cc(-c4ccc(Cl)c(Cl)c4)n[nH]3)[nH]n2)cc1Cl
inactive: [4] 97 % of control | [5] 86 % of control | [6] 96 % of control

Oc1cccc(N2CCN(c3cccc(O)c3)CC2)c1
inactive: [4] 91 % of control | [5] 89 % of control

Cc1ccc2nc(N/N=C/c3cccc(C)n3)cc(C)c2c1
inactive: [7] 100 % of control | [8] 90 % of control | [9] 100 % of control and 93 % of control | [10] 100 % of control

OCC[CH2][Pb]([c]1ccccc1)([c]1ccccc1)[c]1ccccc1
inactive: dose: 0.78 mg/kg/injection, schedule: Q01DX009 (ip), vehicle: Klucel (hydroxypropylcellulose) (HPC) 98 % of control and 105 % of control | dose: 1.56 mg/kg/injection, schedule: Q01DX009 (ip), vehicle: Klucel (hydroxypropylcellulose) (HPC) 100 % of control and 104 % of control and 111 % of control | dose: 3.13 mg/kg/injection, schedule: Q01DX009 (ip), vehicle: Klucel (hydroxypropylcellulose) (HPC) 104 % of control and 110 % of control and 112 % of control | dose: 6.25 mg/kg/injection, schedule: Q01DX009 (ip), vehicle: Klucel (hydroxypropylcellulose) (HPC) 113 % of control and 118 % of control

NCC(=O)NCC(=O)NC1(C(=O)O)CCCC1 (H-Gly-Gly-[Ac5c]-OH)
inactive: [11] 102 % of control and 103 % of control | [12] 110 % of control and 113 % of control | dose: 200.0 mg/kg/injection, schedule: Q01DX005 (ip), vehicle: saline 110 % of control | dose: 400.0 mg/kg/injection, schedule: Q01DX005 (ip), vehicle: saline 116 % of control and 87 % of control

C[N+](C)(N)CCS(N)(=O)=O
inactive: [13] 103 % of control | dose: 100.0 mg/kg/injection, schedule: Q01DX009 (ip), vehicle: saline 103 % of control | dose: 200.0 mg/kg/injection, schedule: Q01DX009 (ip), vehicle: saline 100 % of control

COC(=O)n1nnc2ncccc21
inactive: [14] 101 % of control | [15] 100 % of control | [16] 92 % of control

CNc1ccccc1Br
inactive: [9] 100 % of control | [10] 100 % of control | dose: 200.0 mg/kg/injection, schedule: Q01DX005 (ip), vehicle: saline with Tween-80 100 % of control

c1ccc2c3cc(cc2c1)OCCOCCOCCOCCOCCOc1ccc2ccccc2c1-3
inactive: [3] 101 % of control | [17] 101 % of control | [18] 103 % of control

COc1ccc(N2CCN(CC(O)COc3cc4c(c5c3CCCC5)CCCC4)CC2)cc1 (stereo not given)
inactive: [19] 104 % of control | [20] 94 % of control | [21] 108 % of control

NC(CCC(=O)NC(CSCC(=O)Nc1ccc(O)cc1)C(=O)NCC(=O)O)C(=O)O (stereo not given)
inactive: [14] 97 % of control | [15] 97 % of control | [16] 97 % of control

O=S1(=O)CCCO1
inactive: dose: 100.0 mg/kg/injection, schedule: Q04DX003 (ip), vehicle: saline 100 % of control | dose: 200.0 mg/kg/injection, schedule: Q04DX003 (ip), vehicle: saline 118 % of control

COc1cc2c(c(OC)c1OC)C1=NNC(=O)C1(C)CC2 (stereo not given)
inactive: [19] 91 % of control | [20] 88 % of control | [21] 92 % of control

Oc1c(-c2ccccc2)cc(-c2ccc(Br)cc2)c(-c2ccc(Br)cc2)c1-c1ccccc1
inactive: [1] 107 % of control | [2] 95 % of control | [3] 98 % of control | [17] 105 % of control | [18] 96 % of control

C=C1C(=O)OC2/C=C(/C)C3OC3/C=C(/C(=O)OC)C(OC(C)=O)C(OC(=O)C3(C)OC3C)C12 (stereo not given)
inactive: dose: 1.5 mg/kg/injection, schedule: Q01DX009 (ip), vehicle: Klucel (hydroxypropylcellulose) (HPC) 124 % of control | dose: 12.0 mg/kg/injection, schedule: Q01DX009 (ip), vehicle: Klucel (hydroxypropylcellulose) (HPC) 86 % of control

CC1(C)C2=CCC[C@H]2[C@H]2[C@@H](OC(=O)/C=C/c3ccccc3)CC[C@H]21
inactive: dose: 100.0 mg/kg/injection, schedule: Q01DX001 (ip), vehicle: Klucel (hydroxypropylcellulose) (HPC) 100 % of control | dose: 200.0 mg/kg/injection, schedule: Q01DX001 (ip), vehicle: Klucel (hydroxypropylcellulose) (HPC) 103 % of control | dose: 400.0 mg/kg/injection, schedule: Q01DX001 (ip), vehicle: Klucel (hydroxypropylcellulose) (HPC) 103 % of control

Cc1ccc(N2C(=O)CCSC2=S)cc1Br
inactive: dose: 50.0 mg/kg/injection, schedule: Q01DX009 (ip), vehicle: suspension in saline 103 % of control | dose: 100.0 mg/kg/injection, schedule: Q01DX009 (ip), vehicle: suspension in saline 107 % of control | dose: 200.0 mg/kg/injection, schedule: Q01DX009 (ip), vehicle: suspension in saline 107 % of control

[O]=[Mo](=[O])=[O]
inactive: [14] 100 % of control | [15] 110 % of control | [16] 115 % of control

COC(=O)/N=C1\C(=O)C=CC(O)=C1C(N)=O
inactive: dose: 6.25 mg/kg/injection, schedule: Q01DX005 (ip), vehicle: saline with Tween-80 90 % of control | [7] 94 % of control | [8] 92 % of control

NCC(=O)c1ccc(O)c(O)c1
inactive: dose: 25.0 mg/kg/injection, schedule: Q01DX009 (ip), vehicle: saline 100 % of control | dose: 25.0 mg/kg/injection, schedule: Q04DX003 (ip), vehicle: saline with Tween-80 108 % of control | [13] 113 % of control | dose: 50.0 mg/kg/injection, schedule: Q04DX003 (ip), vehicle: saline with Tween-80 108 % of control | dose: 100.0 mg/kg/injection, schedule: Q04DX003 (ip), vehicle: saline with Tween-80 104 % of control and 121 % of control

O=c1oc(-c2ccccc2)nc2cc(Cl)ccc12
inactive: [19] 100 % of control | [20] 90 % of control | [21] 107 % of control

COC1(OC)C=NNc2nncn21
inactive: [11] 105 % of control | [12] 107 % of control
